From patent US5684151A, “1-arylsulphonyl, arylcarbonyl and 1-arylphosphonyl-3-phenyl-1,4,5,6-tetrahydropyridazines” (priority 1995, dated 1997) come the findings set out here.

The test system of experiment [1] is mouse (MC3T3-E1) and human (TE-85) osteoblast-line cells. In kind it is cell-based. Put shortly: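 MC3T3-E1 or TE-85 cells were plated overnight in DMEM/25 mM HEPES/10% FBS and then preincubated 24 h in 0.1% FBS. Compounds were added for 20 h, followed by a 4 h pulse of 0.4 μCi ^3H-thymidine. Incorporated radioactivity served as the proliferation index, expressed as % of control (control = 100%).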

In experiment [2] the target is T1, progestin receptor from rabbit uterus (Oryctolagus cuniculus, UniProt P06186).
T1 construct: Cytosolic progestin receptor were obtained by mixing rabbit uterine tissue with a Tris buffer; from tissue; host or cells: rabbit uterus cytosol
Nature of the experiment: Progestin receptor binding (3H-R5020 displacement). As to conditions: rabbit uterine cytosol, 4° C., 18 h, read-out: IC50: Binding affinity for the progestin receptor from rabbit uterus. In a few lines: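 Rabbit uterine cytosol in Tris buffer pH 7.4 with EDTA, DTT and molybdate was incubated with 3H-R5020 and test compound (5% DMSO final) at 4 °C for about 18 h. Bound ligand was separated with dextran-coated charcoal and counted by scintillation; IC50 is 50% radioligand displacement, with nonspecific binding defined by excess unlabelled ligand.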

For experiment [3], the system named is Human T47D breast carcinoma cells. Nature of the experiment: Ex vivo progestational test (T47D proliferation). Format: cell-based. As to conditions: SC200, 3H-thymidine incorporation. As to the method:
The progestational activity of the compounds was accessed by their ability to stimulate proliferation of human breast carcinoma cells. Proliferation was measured as the ability to stimulate ^3 H-thymidine incorporation into these cells in vitro. Human T47D breast carcinoma cells (American Type Tissue Collection #133-HTB) were maintained in media consisting or RPMI 1640 supplemented with 10% fetal bovine serum, 10 ug/ml insulin, 10 U/ml pennicillin, 100 ug/ml streptomycin, and 2 mM L-glutamine. Monolayer cell cultures were trypsinized and washed in assay media consisting of phenol red-free RPMI 1640 supplemented with 5% charcoal-stripped, fetal bovine serum, and the other ingredients listed above. Cells were then plated in a 96-well plate. After a 48-hour incubation period at 37° C., the conditioned media was removed and replaced with fresh media containing test compounds in DMSO (0.1% DMSO final concentration). The cell cultures were incubated for 18 to 20 hours at 37° C. ^3 H-thymidine was then added to each well and the cell cultures were incubated at 37° C. for an additional 4 hours. Labelling was stopped by addition of un labelled thymidine. The cultures were washed twice, trypsinized and then harvested onto a filter mat. Incorporated ^3 -H-thymidine was measured by liquid scintillation counting. Data was expressed as a percent stimulation above control level which was set at 100%. An SC200 value was calculated as the concentration of test material needed to stimulate ^3 H-thymidine incorporation 200% of control.
Aspects of the application of the procedure used are described in the following: C. Christensen, D. Gunter, D. Saunders and V. Malviya, Gynecol. Oncol., 28, 25 (1987); J. Puzas, R. Drivdahl, G. Howard and D. Baylink, Proc. Soc. Exp. Biol. Med., 166, 113 (1981); and I. Keydar, L. Chen, S. Karby, F. Weiss, J. Delarea, M. Raduy, S. Chaitcik and H. Brenner, Eur. J. Cancer, 15, 659 (1979)

In experiment [4] the test system is rabbit endometrium. As to the kind of experiment: In vivo progestational test (Clauberg Test). The settings on record: oral or parenteral, daily for five days. The arrangement: species or system rabbit (immature New Zealand White female); key: Active in Clauberg Assay; Active in McGinty Assay. Here is the method:
Progestational activity was also measured in vivo by the abiity to stimulate the rabbit endometrium after either oral or parenteral administration.
[…]. Starting on the 7th day, the rabbits were given the test material daily for five days. The rabbits were sacrificed approximately 24 hours after the last administration, and the uteri were excised, trimmed and weighed. Portions of both uterine horns were fixed in 10% neutral formalin, sectioned at 6μ and stained with hematoxylin and eosin. Progestational activity was assessed as described above for the McGinty Test.

For experiment [5], the system named is rabbit endometrium. Nature of the experiment: In vivo progestational test (McGinty Test). On the set-up: species or system rabbit (immature New Zealand White female); key: Active in Clauberg Assay; Active in McGinty Assay. The settings on record: injection into uterine horn, 72 hours. Here is the method: Progestational activity was measured in vivo by the ability to stimulate the rabbit endometrium after injection into the uterine horn.
Immature New Zealand White female rabbits were injected subcutaneously for 6 days with 5.0 μg of 17β-estradiol per day. On the 7th day the rabbits were anesthetized, the abdomen opened and a uterine horn exposed. Two ligatures were placed around a segment of the uterus 3-4 cm long, leaving the major blood vessels outside the ties.
The upper ligature was tied tightly, and the lower one was left loose. A needle attached to a syringe was injected in the uterus below the second ligature and up into the area between the two ligatures. As the test material was injected, the ligature was tightened and held tight so that the needle was withdrawn without the loss of fluid. The second ligature was secured and the abdomen closed.
The rabbits were sacrificed approximately 72 hours after the injection. The uteri were removed, fixed in 10% buffered formalin, sectioned at 6μ, and stained with hematoxylin and eosin. The evaluation for endometrial proliferation was made according to a McPhail Index. Each slide was graded for each rabbit on a 0 (no response)-4 (maximum response) scale.

In experiment [6] the test system is mature female rabbits. Nature of the experiment: Additional test to determine bone growth activity (bone density by dual X-ray densitometry). In kind it is in vivo, rabbit. The settings on record: oral once daily, 12 weeks, vs vehicle treated control. As to the method:
Test compounds were orally administered once daily to mature female rabbits for 12 weeks. Bone density was measured by dual X-ray densitometry and results were expressed as % base line bone mineral content.

Structures are written as SMILES. pIC50: −log10 of the molar value. Read-outs that look alike come from different tables or passages of the source.

T1 sequence (P06186 whole entry): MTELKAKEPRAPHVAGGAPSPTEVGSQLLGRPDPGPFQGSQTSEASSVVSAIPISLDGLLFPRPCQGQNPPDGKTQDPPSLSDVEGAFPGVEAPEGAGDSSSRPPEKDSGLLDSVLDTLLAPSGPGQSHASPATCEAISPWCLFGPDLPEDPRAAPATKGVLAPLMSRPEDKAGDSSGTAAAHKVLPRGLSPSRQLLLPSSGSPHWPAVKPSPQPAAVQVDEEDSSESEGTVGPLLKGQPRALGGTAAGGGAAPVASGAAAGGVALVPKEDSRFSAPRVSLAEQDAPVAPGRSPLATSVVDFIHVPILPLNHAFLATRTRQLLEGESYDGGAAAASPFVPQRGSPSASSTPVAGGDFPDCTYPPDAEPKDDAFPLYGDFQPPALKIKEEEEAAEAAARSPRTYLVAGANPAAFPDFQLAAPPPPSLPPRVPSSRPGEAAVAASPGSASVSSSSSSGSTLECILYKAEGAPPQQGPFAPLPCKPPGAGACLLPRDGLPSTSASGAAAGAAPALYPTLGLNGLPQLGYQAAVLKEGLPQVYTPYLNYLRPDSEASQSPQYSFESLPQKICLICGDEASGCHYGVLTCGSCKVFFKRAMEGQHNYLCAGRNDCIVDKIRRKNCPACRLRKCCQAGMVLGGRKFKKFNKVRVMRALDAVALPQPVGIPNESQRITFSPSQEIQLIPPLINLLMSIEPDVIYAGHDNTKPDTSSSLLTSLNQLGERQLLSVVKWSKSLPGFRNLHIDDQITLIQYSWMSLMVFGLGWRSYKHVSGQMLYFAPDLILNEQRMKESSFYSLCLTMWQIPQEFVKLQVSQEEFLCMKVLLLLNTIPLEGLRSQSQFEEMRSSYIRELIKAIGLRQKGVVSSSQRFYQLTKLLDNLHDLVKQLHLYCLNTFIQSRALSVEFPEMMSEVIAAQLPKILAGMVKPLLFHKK

As for `O=S(=O)(c1ccc(Br)cc1)N1CCCC(c2ccc(Cl)c(Cl)c2)=N1` [Compound 39, 3-(3,4-dichlorophenyl)-1-(4-bromobenzenesulphonyl)-1,4,5,6-tetrahydropyridazine], the “Osteoblast Cell Proliferation, 3H-thymidine incorporation vs control (100%)” value (from here on “Osteoblast Cell Proliferation … (100%)”) in experiment [1] (10^-6) is given as 92%; in experiment [1] (10^-7), 94%; in experiment [1] (10^-8) it was 84%; in experiment [1] (10^-9), 115%; in experiment [1] (10^-10) it was 99%. Further, the pIC50 in experiment [2] was 9.15. The “T47D: Concentration to elicit a 200% increase in T47D Human breast cell proliferation” value in experiment [3] was determined as 100. In experiment [4], the “In-vivo: Active in Clauberg Assay” value is reported as “C”. Also, in experiment [5], the “In-vivo: Active in McGinty Assay” value is listed as “M”.
As to `O=S(=O)(c1ccc2ccccc2c1)N1CCCC(c2ccc(Cl)c(Cl)c2)=N1` [Compound 42, 3-(3,4-dichlorophenyl)-1-(2-naphthylenesulfonyl)-1,4,5,6-tetrahydropyridazine], the “Osteoblast Cell Proliferation … (100%)” value is reported as 135% in experiment [1] (10^-6); 144% in experiment [1] (10^-7); 155% in experiment [1] (10^-8); 146% in experiment [1] (10^-9); 166% in experiment [1] (10^-10). In addition, the negative logarithm of the IC50 (pIC50) in experiment [2] is 9.01. Moreover, the “T47D: Concentration to elicit a 200% increase in T47D Human breast cell proliferation” value in experiment [3] worked out at 321. In addition, in experiment [5], the “In-vivo: Active in McGinty Assay” value is recorded as “M”.
`O=S(=O)(c1ccc(Cl)cc1)N1CCCC(c2ccc(Cl)c(Cl)c2)=N1` [Compound 12, 3-(3,4-dichlorophenyl)-1-(4-chlorobenzenesulphonyl)-1,4,5,6-tetrahydropyridazine]: the “Osteoblast Cell Proliferation … (100%)” value in experiment [1] (10^-6) is given as 118%; in experiment [1] (10^-7), 115%; in experiment [1] (10^-8) it was 114%; in experiment [1] (10^-9), 131%; in experiment [1] (10^-10), 135%. Further, the pIC50 in experiment [2] was 9.00. Further, the “T47D: Concentration to elicit a 200% increase in T47D Human breast cell proliferation” value in experiment [3] was 153. Besides, the “In-vivo: Active in Clauberg Assay” value in experiment [4] is recorded as “C”. Moreover, in experiment [5], the “In-vivo: Active in McGinty Assay” value was “M”.
As to `O=S(=O)(c1cc(Cl)cc(Cl)c1)N1CCCC(c2ccc(Cl)c(C(F)(F)F)c2)=N1` [Compound 80], the pIC50 in experiment [2] was 9.10. In addition, the “T47D: Concentration to elicit a 200% increase in T47D Human breast cell proliferation” value in experiment [3] was found to be 85. Moreover, in experiment [5], the “In-vivo: Active in McGinty Assay” value is reported as “M”.
For the compound `O=S(=O)(c1ccc(I)cc1)N1CCCC(c2ccc(Cl)c(C(F)(F)F)c2)=N1` [Compound 1, 3-(4-Chloro-3-trifluoromethylphenyl)-1-(4-iodobenzenesulfonyl)-1,4,5,6-tetrahydropyridazine], the negative logarithm of the IC50 (pIC50) in experiment [2] is 8.88. The “T47D: Concentration to elicit a 200% increase in T47D Human breast cell proliferation” value in experiment [3] was 46. Besides, the “In-vivo: Active in Clauberg Assay” value in experiment [4] is listed as “C”. Further, the “In-vivo: Active in McGinty Assay” value in experiment [5] is on record as “M”.
Take `Cc1ccc(S(=O)(=O)N2CCCC(c3ccc(Cl)c(C(F)(F)F)c3)=N2)cc1` [Compound 82]: in experiment [2], the pIC50 is 8.53. Besides, in experiment [3], the “T47D: Concentration to elicit a 200% increase in T47D Human breast cell proliferation” value is 608. Besides, the “In-vivo: Active in McGinty Assay” value in experiment [5] is recorded as “M”.
In the case of `O=S(=O)(c1ccc(I)cc1)N1CCCC(c2ccc(Cl)c(Cl)c2)=N1` [Compound 40, 3-(3,4-dichlorophenyl)-1-(4-iodobenzenesulphonyl)-1,4,5,6-tetrahydropyridazine], the “Osteoblast Cell Proliferation … (100%)” value amounted to 78% in experiment [1] (10^-6); 90% in experiment [1] (10^-7); 71% in experiment [1] (10^-8); 58% in experiment [1] (10^-9); 53% in experiment [1] (10^-10). For the same compound, in experiment [2], the pIC50 was 8.93. Besides, the “T47D: Concentration to elicit a 200% increase in T47D Human breast cell proliferation” value in experiment [3] is on record as 26. In addition, in experiment [4], the “In-vivo: Active in Clauberg Assay” value is given as “C”. For the same compound, the “In-vivo: Active in McGinty Assay” value in experiment [5] is listed as “M”.
As for `O=C(c1ccc(Cl)c(Cl)c1)N1CCCC(c2cccs2)=N1` [Compound 280, 3-(2-Thienyl)-1-(3,4-dichlorobenzoyl)-1,4,5,6-tetrahydropyridazine], the bone mineral content result in experiment [6] was “significant increase in bone mineral content”.
For `O=C(c1ccc(Cl)c(Cl)c1)N1CCCC(c2ccccc2)=N1` [Compound 185, 1-(3,4-dichlorobenzoyl)-3-phenyl-1,4,5,6-tetrahydropyridazine], the “Osteoblast Cell Proliferation … (100%)” value in experiment [1] (10^-6) worked out at 98%; in experiment [1] (10^-7), 136%; in experiment [1] (10^-8), 147%; in experiment [1] (10^-9), 131%; in experiment [1] (10^-10), 128%. Also, in experiment [2], the pIC50 is 5.45. The “T47D: Concentration to elicit a 200% increase in T47D Human breast cell proliferation” value in experiment [3] stood at 10000. Besides, the bone mineral content result in experiment [6] is on record as “significant increase in bone mineral content”.
For `Cc1ccc(S(=O)(=O)N2CCCC(c3ccc(Cl)c(Cl)c3)=N2)cc1` [Compound 41, 3-(3,4-dichlorophenyl)-1-(4-methylbenzenesulphonyl)-1,4,5,6-tetrahydropyridazine], the “Osteoblast Cell Proliferation … (100%)” value in experiment [1] (10^-6) was 138%; in experiment [1] (10^-7), 158%; in experiment [1] (10^-8), 166%; in experiment [1] (10^-9) it was 144%; in experiment [1] (10^-10) it was 116%. The pIC50 in experiment [2] was 8.71. The “T47D: Concentration to elicit a 200% increase in T47D Human breast cell proliferation” value in experiment [3] stood at 4000. In experiment [5], the “In-vivo: Active in McGinty Assay” value is “M”.
Turning to `O=S(=O)(c1ccc2c(c1)CCCC2)N1CCCC(c2ccc(Cl)c(C(F)(F)F)c2)=N1` [Compound 78], in experiment [2], the pIC50 is 8.61. Moreover, the “T47D: Concentration to elicit a 200% increase in T47D Human breast cell proliferation” value in experiment [3] is 10000. Also, the “In-vivo: Active in Clauberg Assay” value in experiment [4] was “C”. For the same compound, the “In-vivo: Active in McGinty Assay” value in experiment [5] is listed as “M”.
Turning to `O=S(=O)(c1ccc(Cl)cc1)N1CCCC(c2ccc(Cl)c(C(F)(F)F)c2)=N1` [Compound 77], the negative-log IC50 (pIC50) in experiment [2] is 8.83. Besides, the “T47D: Concentration to elicit a 200% increase in T47D Human breast cell proliferation” value in experiment [3] is on record as 286. In experiment [4], the “In-vivo: Active in Clauberg Assay” value is given as “C”. In addition, the “In-vivo: Active in McGinty Assay” value in experiment [5] is reported as “M”.

The pIC50 is the IC50 on a negative log10 scale, so that one unit is a factor of ten.
